Some results are limits rather than exact numbers.

T1 sequence (P53779 whole entry): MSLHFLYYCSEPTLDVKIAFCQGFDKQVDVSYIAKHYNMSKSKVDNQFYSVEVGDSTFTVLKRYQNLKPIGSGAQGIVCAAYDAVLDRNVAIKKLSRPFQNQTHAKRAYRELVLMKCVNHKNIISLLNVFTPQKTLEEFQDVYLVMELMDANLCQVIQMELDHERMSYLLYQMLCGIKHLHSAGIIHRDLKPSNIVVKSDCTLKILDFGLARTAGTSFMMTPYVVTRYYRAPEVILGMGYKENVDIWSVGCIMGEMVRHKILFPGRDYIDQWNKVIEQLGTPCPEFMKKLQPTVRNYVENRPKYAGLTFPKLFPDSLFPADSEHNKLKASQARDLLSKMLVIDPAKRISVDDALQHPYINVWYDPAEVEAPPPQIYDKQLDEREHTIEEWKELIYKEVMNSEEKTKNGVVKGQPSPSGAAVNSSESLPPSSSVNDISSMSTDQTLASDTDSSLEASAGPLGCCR

One assay has as its target T1, JNK3(h) (Homo sapiens, UniProt P53779).
T1 construct: purchased Reaction Biology Corp
As to the kind of experiment: Kinase HotSpot radiometric assay, JNK3. In kind it is biochemical. As to conditions: ATP 10 μM, substrate ATF2 5 μM; read-out: JNK3 inhibitory activity IC50.
For `Oc1ccc2c(c1)nc(-c1ccc3ccccc3c1)n2-c1ccnc(NC2CCOCC2)n1` [9a], the IC50 is 1480 nM.

On to `Oc1ccc2c(c1)nc(-c1ccc3c(c1)OCCO3)n2-c1ccnc(NC2CCOCC2)n1` [9b, 2-(2,3-Dihydrobenzo[b][1,4]dioxin-6-yl)-1-(2-((tetrahydro-2H-pyran-4-yl)amino)pyrimidin-4-yl)-1H-benzo[d]imidazol-5-ol], for which the IC50 was more than 10000 nM.

Consider `Oc1ccc2c(c1)nc(-c1ccc3occc3c1)n2-c1ccnc(NC2CCOCC2)n1` [9c, 2-(Benzofuran-5-yl)-1-(2-((tetrahydro-2H-pyran-4-yl)amino)pyrimidin-4-yl)-1H-benzo[d] imidazol-5-ol], for which the IC50 was found to be 4310 nM.

As for `Oc1ccc2c(c1)nc(-c1ccc3ccccc3c1)n2-c1ccnc(NC2CCCCC2)n1` [10a, 1-(2-(cyclohexylamino)pyrimidin-4-yl)-2-(naphthalen-2-yl)-1H-benzo[d]imidazol-5-ol], the IC50 is 420 nM.

As for `Oc1ccc2c(c1)nc(-c1ccc3c(c1)OCCO3)n2-c1ccnc(NC2CCCCC2)n1` [10b, 1-(2-(Cyclohexylamino)pyrimidin-4-yl)-2-(2,3-dihydrobenzo[b][1, 4]dioxin-6-yl)-1H-benzo [d]imidazol-5-ol], the IC50 is 1210 nM.

Take `Oc1ccc2c(c1)nc(-c1ccc3occc3c1)n2-c1ccnc(NC2CCCCC2)n1` [10c, 2-(Benzofuran-5-yl)-1-(2-(cyclohexylamino)pyrimidin-4-yl)-1H-benzo[d]imidazol-5-ol]: the IC50 was 299 nM.

Regarding `Oc1ccc2c(c1)nc(-c1ccc(Cl)c(Cl)c1)n2-c1ccnc(NC2CCCCC2)n1` [10d, 1-(2-(Cyclohexylamino)pyrimidin-4-yl)-2-(3,4-dichlorophenyl)-1H-benzo[d]imidazol-5-ol], the IC50 was 139 nM.

With `Oc1ccc2c(c1)nc(-c1ccc(F)c(C(F)(F)F)c1)n2-c1ccnc(NC2CCCCC2)n1` [10e, 1-(2-(Cyclohexylamino)pyrimidin-4-yl)-2-(4-fluoro-3-(trifluoromethyl)phenyl)-1H-benzo [d]imidazol-5-ol], the IC50 came out at 799 nM.

For the compound `Oc1ccc2c(c1)nc(-c1ccc3ccccc3n1)n2-c1ccnc(NC2CCCCC2)n1` [10f, 1-(2-(Cyclohexylamino)pyrimidin-4-yl)-2-(quinolin-2-yl)-1H-benzo[d]imidazol-5-ol], the IC50 worked out at 424 nM.

Regarding `O=C(C1CC1)N1CCC[C@H](Nc2nccc(-n3c(-c4ccc5ccccc5c4)nc4cc(O)ccc43)n2)C1` [13a, (S)-cyclopropyl(3-((4-(5-hydroxy-2-(naphthalen-2-yl)-1H-benzo[d]imidazol-1-yl)pyrimidin-2-yl)amino)piperidin-1-yl)methanone], the IC50 turned out to be 391 nM.

With `O=C(C1CC1)N1CCC[C@H](Nc2nccc(-n3c(-c4ccc5c(c4)OCCO5)nc4cc(O)ccc43)n2)C1` [13b, (S)-Cyclopropyl(3-((4-(2-(2,3-dihydrobenzo[b][1, 4]dioxin-6-yl)-5-hydroxy-1H-benzo[d]imidazol-1-yl)pyrimidin-2-yl)amino)piperidin-1-yl)methanone], the IC50 is 679 nM.

Regarding `O=C(C1CC1)N1CCC[C@H](Nc2nccc(-n3c(-c4ccc5occc5c4)nc4cc(O)ccc43)n2)C1` [13c, (S)-(3-((4-(2-(Benzofuran-5-yl)-5-hydroxy-1H-benzo[d]imidazol-1-yl)pyrimidin-2-yl)amino)piperidin-1-yl)(cyclopropyl)methanone], the IC50 worked out at 287 nM.

In the case of `O=C(C1CC1)N1CCC[C@H](Nc2nccc(-n3c(-c4ccc(Cl)c(Cl)c4)nc4cc(O)ccc43)n2)C1` [13d, (S)-Cyclopropyl(3-((4-(2-(3,4-dichlorophenyl)-5-hydroxy-1H-benzo[d]imidazol-1-yl)pyrimidin-2-yl)amino)piperidin-1-yl)methanone], the IC50 came out at 128 nM.

As for `O=C(C1CC1)N1CCC[C@H](Nc2nccc(-n3c(-c4ccc(F)c(C(F)(F)F)c4)nc4cc(O)ccc43)n2)C1` [13e, (S)-Cyclopropyl(3-((4-(2-(4-fluoro-3-(trifluoromethyl)phenyl)-5-hydroxy-1H-benzo[d]imidazol-1-yl)pyrimidin-2-yl)amino)piperidin-1-yl)methanone], the IC50 worked out at 679 nM.

Take `O=C(C1CC1)N1CCC[C@H](Nc2nccc(-n3c(-c4ccc5ccccc5n4)nc4cc(O)ccc43)n2)C1` [13f, (S)-Cyclopropyl(3-((4-(5-hydroxy-2-(quinolin-2-yl)-1H-benzo[d]imidazol-1-yl)pyrimidin-2-yl)amino)piperidin-1-yl)methanone]: the IC50 turned out to be 161 nM.

`Oc1ccc2nc(-c3ccc4ccccc4c3)n(-c3ccnc(NC4CCOCC4)n3)c2c1` [22a, 2-(Naphthalen-2-yl)-1-(2-((tetrahydro-2H-pyran-4-yl)amino)pyrimidin-4-yl)-1H-benzo[d]imidazol-6-ol]: the IC50 stood at 1430 nM.

For the compound `Oc1ccc2nc(-c3ccc4c(c3)OCCO4)n(-c3ccnc(NC4CCOCC4)n3)c2c1` [22b, 2-(2,3-Dihydrobenzo[b][1,4]dioxin-6-yl)-1-(2-((tetrahydro-2H-pyran-4-yl)amino)pyrimidin-4-yl)-1H-benzo[d]imidazol-6-ol], the IC50 is 1550 nM.

Turning to `Oc1ccc2nc(-c3ccc4occc4c3)n(-c3ccnc(NC4CCOCC4)n3)c2c1` [22c, 2-(Benzofuran-5-yl)-1-(2-((tetrahydro-2H-pyran-4-yl)amino)pyrimidin-4-yl)-1H-benzo[d]imidazol-6-ol], the IC50 was 2190 nM.

With `Oc1ccc2nc(-c3ccc4ccccc4c3)n(-c3ccnc(NC4CCCCC4)n3)c2c1` [23a, 1-(2-(Cyclohexylamino)pyrimidin-4-yl)-2-(naphthalen-2-yl)-1H-benzo[d]imidazol-6-ol], the IC50 came out at 45 nM.

Take `Oc1ccc2nc(-c3ccc4c(c3)OCCO4)n(-c3ccnc(NC4CCCCC4)n3)c2c1` [23b, 1-(2-(Cyclohexylamino)pyrimidin-4-yl)-2-(2,3-dihydrobenzo[b][1,4]dioxin-6-yl)-1H-benzo [d]imidazol-6-ol]: the IC50 is 281 nM.

As to `Oc1ccc2nc(-c3ccc4occc4c3)n(-c3ccnc(NC4CCCCC4)n3)c2c1` [23c, 2-(Benzofuran-5-yl)-1-(2-(cyclohexylamino)pyrimidin-4-yl)-1H-benzo[d]imidazol-6-ol], the IC50 was 71 nM.

Consider `Oc1ccc2nc(-c3ccc(Cl)c(Cl)c3)n(-c3ccnc(NC4CCCCC4)n3)c2c1` [23d, 1-(2-(Cyclohexylamino)pyrimidin-4-yl)-2-(3,4-dichlorophenyl)-1H-benzo[d]imidazol-6-ol], for which the IC50 was found to be 110 nM.

Consider `Oc1ccc2nc(-c3ccc(F)c(C(F)(F)F)c3)n(-c3ccnc(NC4CCCCC4)n3)c2c1` [23e, 1-(2-(Cyclohexylamino)pyrimidin-4-yl)-2-(4-fluoro-3-(trifluoromethyl)phenyl)-1H-benzo [d]imidazol-6-ol], for which the IC50 came to 305 nM.

Consider `Oc1ccc2nc(-c3ccc4ccccc4n3)n(-c3ccnc(NC4CCCCC4)n3)c2c1` [23f, 1-(2-(Cyclohexylamino)pyrimidin-4-yl)-2-(quinolin-2-yl)-1H-benzo[d]imidazol-6-ol], for which the half-inhibitory concentration (IC50) amounted to 424 nM.

On to `O=C(C1CC1)N1CCC[C@H](Nc2nccc(-n3c(-c4ccc5c(c4)OCCO5)nc4ccc(O)cc43)n2)C1` [26b, (S)-Cyclopropyl(3-((4-(2-(2,3-dihydrobenzo[b][1,4]dioxin-6-yl)-6-hydroxy-1H-benzo[d]imidazol-1-yl)pyrimidin-2-yl)amino)piperidin-1-yl)methanone], for which the IC50 came out at 114 nM.

Take `O=C(C1CC1)N1CCC[C@H](Nc2nccc(-n3c(-c4ccc5occc5c4)nc4ccc(O)cc43)n2)C1` [26c, (S)-(3-((4-(2-(Benzofuran-5-yl)-6-hydroxy-1H-benzo[d]imidazol-1-yl)pyrimidin-2-yl)amino)piperidin-1-yl)(cyclopropyl)methanone]: the IC50 stood at 42 nM.

Regarding `O=C(C1CC1)N1CCC[C@H](Nc2nccc(-n3c(-c4ccc(Cl)c(Cl)c4)nc4ccc(O)cc43)n2)C1` [26d, (S)-Cyclopropyl(3-((4-(2-(3,4-dichlorophenyl)-6-hydroxy-1H-benzo[d]imidazol-1-yl)pyrimidin-2-yl)amino)piperidin-1-yl)methanone], the IC50 is 22 nM.

For the compound `O=C(C1CC1)N1CCC[C@H](Nc2nccc(-n3c(-c4ccc(F)c(C(F)(F)F)c4)nc4ccc(O)cc43)n2)C1` [26e, (S)-Cyclopropyl(3-((4-(2-(4-fluoro-3-(trifluoromethyl)phenyl)-6-hydroxy-1H-benzo[d]imidazol-1-yl)pyrimidin-2-yl)amino)piperidin-1-yl)methanone], the IC50 was 100 nM.

Turning to `O=C(C1CC1)N1CCC[C@H](Nc2nccc(-n3c(-c4ccc5ccccc5n4)nc4ccc(O)cc43)n2)C1` [26f, (S)-Cyclopropyl(3-((4-(6-hydroxy-2-(quinolin-2-yl)-1H-benzo[d]imidazol-1-yl)pyrimidin-2-yl)amino)piperidin-1-yl)methanone], the IC50 is 189 nM.

The same assay, now with this note: read-out: JNK3 IC50.
With `O=C(C1CC1)N1CCC[C@H](Nc2nccc(-n3c(-c4ccc(Cl)c(Cl)c4)nc4ccc(O)cc43)n2)C1` [26d, (S)-Cyclopropyl(3-((4-(2-(3,4-dichlorophenyl)-6-hydroxy-1H-benzo[d]imidazol-1-yl)pyrimidin-2-yl)amino)piperidin-1-yl)methanone], the concentration for half-maximal inhibition (IC50) is approximately 20 nM.

These data come from PMC8539420, “Discovery of a Potent and Selective JNK3 Inhibitor with Neuroprotective Effect Against Amyloid β-Induced Neurotoxicity in Primary Rat Neurons” (International Journal of Molecular Sciences, 2021).
